As a reminder, the EC50 is the midpoint of the concentration-response curve.

These results are taken from patent publication US20230151069A1, “Cyclic Peptides” (LIFEARC, priority 2020, published 2023).

In one data set the test system is TAP01 antibody. Description: Proline mutated peptide binding to TAP01 antibody using Biacore T200. Also noted: species or system mouse. The following applies: Biacore T200, FIG. 23.
In data set [1] the test system is disulphide bridged 1-14 cyclic peptide 3, 12. The following applies: mouse 5 (best immune response), FIG. 8. The protocol:
• 1. […] Incubate at 4° C. overnight • 3. Wash the plate (NUNC 384 program) • 4. […] Incubate at RT for 1 hour • 6. Wash the plate (NUNC 384 program) • 7. […] Incubate at 4° C. overnight • 9. Wash the plate (NUNC 384 program) • 10.

The subject of the next data set is pE3-42 amyloid peptide. The data set is described as follows: Immunisation with disulphide bridged peptide, sera pE3-42 peptide binding ELISA. The class given is in vivo, mice and rabbits. To be noted: sera after immunisation with disulphide bridged peptide. The method, then: • 1. Coat 384-well plate with 30 μL/well of 100 ng/ml PSL amyloid 1-42 peptide (Human-Peptide Specialty Laboratories-CEM1904161) diluted in carb/bicarb buffer • 2. Incubate at 37° C. for 1 hour • 3. Wash the plate (NUNC 384 program) • 4. […] Incubate at 4° C. overnight • 6. Wash the plate (NUNC 384 program) • 7. […] Transfer 30 μL/well onto the assay plate • 10. Incubate at 37° C. for 1 hour • 11. Wash the plate (NUNC 384 program) • 12. […] Incubate at 37° C. for 1 hour • 14. Wash the plate (NUNC 384 program) • 15. […] Incubate at RT for 10 min in the dark • 17. […] Coat 384-well plate with 30 μL/well of 100 ng/ml PSL amyloid pE3-42 peptide (Human-Peptide Specialty Laboratories-CEM062210 Pyr) diluted in carb/bicarb buffer • 2. Incubate at 37° C. for 1 hour • 3. Wash the plate (NUNC 384 program) • 4. […] Incubate at 4° C. overnight • 6. Wash the plate (NUNC 384 program) • 7. […] Transfer 30 μL/well onto the assay plate • 10. Incubate at 37° C. for 1 hour • 11. Wash the plate (NUNC 384 program) • 12. […] Incubate at 37° C. for 1 hour • 14. Wash the plate (NUNC 384 program) • 15. […] Incubate at RT for 10 min in the dark • 17.
For orientation: An ELISA detects its analyte on a solid surface through an enzyme-linked reagent.

The next data set relates to 4-42 amyloid peptide. The following applies: sera after immunisation with disulphide bridged peptide, ELISA. The protocol: • 1. […] Wash the plate (NUNC 384 program) • 4. […] Wash the plate (NUNC 384 program) • 7. […] Incubate at 37° C. for 1 hour • 13. Wash the plate (NUNC 384 program) • 14.
Another data set deals with TAP01 (MoG1K) antibody. Description: Thioacetal bridged cyclic peptide binding ELISA with TAP01 antibody. Also noted: species or system mouse. The method, then: (§1) • 1. […] Incubate at 4° C. overnight • 3. Wash the plate (NUNC 384 program) • 4. […] Incubate at RT for 1 hour • 6. Wash the plate (NUNC 384 program) • 7. […] Incubate at 4° C. overnight • 9. Wash the plate (NUNC 384 program) • 10. […] Transfer 30 μL/well onto the assay plate • 12. Incubate at 37° C. for 1 hour • 13. Wash the plate (NUNC 384 program) • 14. […] Incubate at 37° C. for 1 hour 16. Wash the plate (NUNC 384 program) 17. […] Incubate at RT for 10 min in the dark 19.
(§2) Binding to comparators antibodies was also assessed.
(§3) Binding to comparator antibodies was also assessed (FIG. 26).

The subject of a further data set is Bapineuzumab. The data set is described as follows: Cyclic peptide binding ELISA with comparator antibody Bapineuzumab. The method, then: as §1, §2, §3
Data set [2] has as its system biotinylated cyclised peptide. The data set is described as follows: Sera of actively immunised 5XFAD and Tg4-42 mice, binding ELISA to cyclised peptide. The class given is in vivo, mouse. To be noted: FIGS. 32 and 33. The protocol: as §1
Animals (SXFAD and Tg4-42 mice) were immunised with thioacetal bridged cyclic peptide 1-14 and sera were screened for binding to biotinylated cyclised peptide as previously described above.

The subject of the next data set is ProBioDrug 24_2_3. Description: Cyclic peptide binding ELISA with comparator antibody ProBioDrug 24_2_3. To be noted: FIG. 7. The method, then:
(§4) • 1. […] Incubate at 4° C. overnight • 3. Wash the plate (NUNC 384 program) • 4. […] Incubate at RT for 1 hour • 6. Wash the plate (NUNC 384 program) • 7. […] Incubate at 4° C. overnight • 9. Wash the plate (NUNC 384 program) • 10. […] Transfer 30 μL/well onto the assay plate • 13. Incubate at 37° C. for 1 hour • 14. Wash the plate (NUNC 384 program) • 15. […] Incubate at 37° C. for 1 hour • 17. Wash the plate (NUNC 384 program) • 18.
as §1
(§5) ProBioDrug 6_1_6 (Deposit No. DSM ACC 2924) and ProBioDrug 24_2_3 (Deposit No. DSM ACC 2926) are described in […].

Another data set concerns ProBioDrug 6_1_6. The data set is described as follows: Cyclic peptide binding ELISA with comparator antibody ProBioDrug 6_1_6. The following applies: FIG. 7. The method, then: as §4, §1, §5
The subject of another data set is BAN2401. Description: Cyclic peptide binding ELISA with comparator antibody BAN2401. To be noted: FIGS. 7, 22. The method, then: as §1
(§6) Binding of the TAP01 antibody has been assessed to these thioacetal bridged cyclic peptide variants by ELISA (FIGS. 20-22 and Table 5). Binding to comparators antibodies was also assessed.

A short description of data set [3]: Stability comparison of both versions of the constrained cyclic peptide. The class given is physicochemical. To be noted: listed as thioacetal bridged peptide.
Another data set has as its system Solanezumab. The data set is described as follows: Cyclic peptide binding ELISA with comparator antibody Solanezumab. To be noted: FIGS. 7, 22. The protocol: as §1, §6
For data set [4], the system named is thioacetal bridged 1-14 cyclic peptide 3,12. Description: Immunisation with thioacetal bridged peptide, sera binding ELISA to thioacetal bridged cyclic peptide. The class given is in vivo, rabbits and mice. The protocol: as §1

Read-outs that look alike come from different tables or passages of the source. *1 amine or outer side, *2 acyl side, *3 side chain or, on linkers, in order; H or OH if unused. Where a SMILES comes first, the peptide text is derived from it. Bridges are numbered along the chain shown (N, C = ends). CH2 = C([*:1])[*:2]

Turning to “PPEFRHDSGYEVHH (Residue 1 and 2 (D to P and A to P))”, the “binding to TAP01 antibody” value in the data set with TAP01 antibody was “bind in a dose dependant manner”.

As to “DA*CFRHDSGYE*CHH-Biotin (*S—S* bridge) [1-14 cyclic peptide (disulphide bridged)]”, in data set [1], the “serum titre to the disulphide bridged cyclic peptide” value was 1/3200. In addition, the “sera binding to pE3-42 amyloid peptide” value in the data set with pE3-42 amyloid peptide was “Minimal binding”. In addition, the “sera binding to 4-42 amyloid peptide” value in the data set with 4-42 amyloid peptide is “Minimal binding”.

With “PPPFRHDSGYEVHH (Residue 1, 2 and 3 (D to P and A to P and E to P))”, in the data set on TAP01 antibody, the “binding to TAP01 antibody” value was “bind in a dose dependant manner”.

`CC(C)[C@H](NC(=O)[C@H](CCC(=O)O)NC(=O)[C@@H]1CSCSC[C@H](N)C(=O)N[C@@H](C)C(=O)N[C@@H](CCC(=O)O)C(=O)N[C@@H](Cc2ccccc2)C(=O)N[C@@H](CCCNC(=N)N)C(=O)N[C@@H](Cc2c[nH]cn2)C(=O)N[C@@H](CC(=O)O)C(=O)N[C@@H](CO)C(=O)NCC(=O)N1)C(=O)N[C@@H](Cc1c[nH]cn1)C(=O)N[C@@H](Cc1c[nH]cn1)C(=O)O` [Peptide 1, 10] (H-CAEFRHDSGCEVHH-OH; linker 1-10 via CH2; N-terminus and C-terminus assumed): the EC50 on TAP01 (MoG1K) antibody (TAP01 (MoG1K), FIG. 25, unit inferred, read-out: calculated EC50 value) was 12 nM. Moreover, the “binding to comparator antibody Bapineuzumab” value with Bapineuzumab (FIGS. 7, 22, 26, 34) was “Binding to the comparator antibody Bapineuzumab was seen”.

On to “DAC*FRHDSGYEC*HH-[Cys]- amide (*S—CH2—S* bridged) [1-14 cyclic peptide (thioacetal bridged)]”, for which the “immune response, sera binding to biotinylated cyclised peptide” value in [2] is on record as “good immune response”. Moreover, the “binding to comparator antibody ProBioDrug 24_2_3” value with ProBioDrug 24_2_3 is “None of the comparator antibodies tested were able to bind”. The “binding to comparator antibody ProBioDrug 6_1_6” value with ProBioDrug 6_1_6 was “None of the comparator antibodies tested were able to bind”. Further, the “binding to comparator antibody BAN2401” value in the data set with BAN2401 is listed as “None of the comparator antibodies tested were able to bind”. Also, the “stability compared with disulphide bridged cyclic peptide” value in [3] is recorded as “more chemically stable”. For the same compound, the “binding to comparator antibody Solanezumab” value with Solanezumab is given as “None of the comparator antibodies tested were able to bind”. Besides, the “binding of TAP01 to the cyclic peptide (hairpin epitope)” value in the data set on TAP01 (MoG1K) antibody (FIG. 7) is “able to bind”. In the data set with Bapineuzumab (FIGS. 7, 22, 26, 34), the “binding to comparator antibody Bapineuzumab” value is listed as “None of the comparator antibodies tested were able to bind”. Also, the “titres of response compared with disulphide bridged peptide” value in data set [4] (mice) is recorded as “higher titres”. In addition, the “serum titre to thioacetal bridged cyclic peptide” value is 1/24300 in data set [4] (mice 3 and 4, FIG. 13); 1/72900 in data set [4] (mouse 2, FIG. 13). Besides, the “immune response after immunisation” value in data set [4] (rabbits and mice, FIG. 13) is “immune response was generated”.

On to `CC(C)[C@H](NC(=O)[C@H](CCC(=O)O)NC(=O)[C@@H]1CSCSC[C@H](N)C(=O)N[C@@H](C)C(=O)N[C@@H](CCC(=O)O)C(=O)N[C@@H](Cc2ccccc2)C(=O)N[C@@H](CCCNC(=N)N)C(=O)N[C@@H](Cc2c[nH]cn2)C(=O)N[C@@H](CC(=O)O)C(=O)N[C@@H](CO)C(=O)NCC(=O)N1)C(=O)N[C@@H](Cc1c[nH]cn1)C(=O)N[C@@H](Cc1c[nH]cn1)C(=O)O` [1, 10] (H-CAEFRHDSGCEVHH-OH; linker 1-10 via CH2; N-terminus and C-terminus assumed), for which, on TAP01 (MoG1K) antibody (TAP01 (MoG1K) binding to thioacetal bridged cyclic peptide variants, Table 7, read-out: EC50), the 50% effective concentration (EC50) turned out to be 12 nM.

Turning to DAPFRHDSGYEVHH (Residue 3 (E to P)), the “binding to TAP01 antibody” value in the data set with TAP01 antibody was “no binding observed”.

Take `CC(C)[C@H](NC(=O)[C@H](CCC(=O)O)NC(=O)[C@@H]1CSCSC[C@H](NC(=O)[C@@H](N)CC(=O)O)C(=O)N[C@@H](CCC(=O)O)C(=O)N[C@@H](Cc2ccccc2)C(=O)N[C@@H](CCCNC(=N)N)C(=O)N[C@@H](Cc2c[nH]cn2)C(=O)N[C@@H](CC(=O)O)C(=O)N[C@@H](CO)C(=O)NCC(=O)N1)C(=O)N[C@@H](Cc1c[nH]cn1)C(=O)N[C@@H](Cc1c[nH]cn1)C(=O)O` [Peptide 2, 10] (H-DCEFRHDSGCEVHH-OH; linker 2-10 via CH2): in the data set on BAN2401, the “binding to comparator antibody BAN2401” value is “low affinity”. For the same compound, the “binding to comparator antibody Solanezumab” value with Solanezumab is given as “low affinity”. The concentration giving a half-maximal response (EC50) on TAP01 (MoG1K) antibody (TAP01 (MoG1K) binding to thioacetal bridged cyclic peptide variants, Table 5, read-out: EC50) was 1.33 nM. Besides, the “binding to comparator antibody Bapineuzumab” value in the data set with Bapineuzumab (FIGS. 7, 22, 26, 34) is reported as “able to bind”; in the data set on Bapineuzumab (FIGS. 7, 22, 26, 34, listed as cyclic peptide 2, 10) it was “Binding to the comparator antibody Bapineuzumab was seen”.
